Patent publication US4689426A, “5-alkylidene-2-halo-4-substituted-2-cyclopentenone and process for production thereof” (Teijin Limited, priority 1983, dated 1987)
Converted amounts (≈) assume the structure as drawn. One block for each molecule: values may come before it.

Legend:
L1210 leukemia cells = assay: Inhibition of proliferation of L1210 leukemia cells; format: cell-based; settings: Mus musculus, L1210, 96 h; 4 days at 37° C., trypan blue count of surviving cells
Experimental: Measurement of the action of inhibiting proliferation of L1210 leukemia cells
L1210 leukemia cells were added to an RPMI medium containing 10% FCS (fetal calf serum), and the concentration of the cells was adjusted to 1×10^5 cells/ml. Each of the test compounds shown in Table 1 was dissolved in 99.5% ethanol. Prior to use, the final concentration of the ethanol solution was adjusted to less than 0.1%, and it was added to the culture medium. The culture medium was then maintained at 37° C. in a stationary condition for 4 days. After the cultivation, the number of surviving cells was measured by dyeing with trypan blue. As a control, 0.1% ethanol was used. A dose-response curve was plotted from the ratios of proliferation against the control, and IC50 was determined.

HSV type-1 (KOS) = assay: Inhibition of herpes simplex virus replication in human embryo lung cells, plaque assay on Vero cells; format: cell-based, herpes simplex virus type-1 (strain KOS); settings: 4 μg/ml, 24 hrs. pretreatment and 24 hrs. after infection; m.o.i. 1; control 1.4 × 10^8; mean of at least three wells
Experimental: (§1) Measurement of inhibitory activities on herpes simplex virus replication
(§2) To evaluate the inhibitory effect of 2-chloro-4-(3,7-dimethyl-6-octenyl)-5-(6-carbomethoxyhexylidene)-2-cyclopentenone against herpes simplex virus [HSV] replication in vitro, human embryo lung cells [HELR66] were grown in 6-well Falcon plates in Eagle's minimal essential medium [MEM] supplemented with 5 percent fetal calf serum [CS] and antibiotics.
(§3) The test compound was dissolved in absolute ethanol and diluted to the appropriate concentrations with culture medium just before use. The cells were incubated at 37° C. in a humidified atmosphere containing 5 percent CO2 and 95 percent air. Confluent monolayers of the cells were treated with 4 μg/ml of the test compound for 24 hrs. before HSV infection. The test compound pretreated cells were infected with HSV type-1 (strain KOS) or HSV type-2 (strain YS-4) at a m.o.i. of 1. After 1 hr. of incubation at 37° C., the cells were further incubated for 24 hrs. with MEM containing with 2 percent CS, antibiotics and 4 μg/ml the test compound. Control media contained the identical concentration of ethanol. HSV infected HEL-R66 cells were harvested with a rubber policeman 24 hrs. after HSV inoculation and stored at -70° C. Titrations were performed by plaque assays on Vero cells.

HSV type-2 (YS-4) = assay: as above; format: cell-based, herpes simplex virus type-2 (strain YS-4); settings: 4 μg/ml, 24 hrs. pretreatment and 24 hrs. after infection; m.o.i. 1; control 1.4 × 10^8; mean of at least three wells
Experimental: as §1, §2, §3

[1] = test system: Ehrlich ascites carcinoma cells; assay: Antitumor effect on Ehrlich ascites carcinoma, survival of mice; format: in vivo, ICR mice; settings: over the control
Experimental: Measurement of the antitumor effect on Ehrich ascites carcinoma
1×10^5 Ehrlich ascites carcinoma cells were intraperitoneally administered to ICR mice. After the lapse of 24 hours, 30 mg/kg/day or 20 mg/kg/day of 2-chloro-4-butyl-5-(6-carboxyhexylidene)-2-cyclopentenone (E-form) was intraperitoneally administered to the mice for 5 days. The periods of survival of these animals were examined.

B. subtilis ATCC 6633 = assay: Antimicrobial activity, serial two-fold dilution; format: cell-based; settings: Bacillus subtilis, ATCC6633; Gram (+); heart infusion agar
Experimental: (§4) Measurement of the antimicrobial activity against Gram positive and negative bacterium
(§5) One loopful of cell suspension (10^8 cells/ml) was inoculated on heart infusion agar medium containing various levels of a compound of this invention (2-chloro-4-n-butyl-5-(6-carboxyhexylidene)-2-cyclopentenone). The minimum inhibitory concentrations (MIC) was determined by a standard serial two-fold dilution method.

P. aeruginosa IFO 3445 = assay: Antimicrobial activity, serial two-fold dilution; format: cell-based; settings: Pseudomonas aeruginosa, IFO3445; Gram (-); heart infusion agar
Experimental: as §4, §5

P. vulgaris H × 19 = assay: Antimicrobial activity, serial two-fold dilution; format: cell-based; settings: Proteus vulgaris; Gram (-); heart infusion agar
Experimental: as §4, §5

S. aureus MS 353 = assay: Antimicrobial activity, serial two-fold dilution; format: cell-based; settings: Staphylococcus aureus, MS353; Gram (+); heart infusion agar
Experimental: as §4, §5

[2] = test system: L1210 mouse leukemia cells; settings: Biochem. Biophys. Res. Commun., 105, 956 (1982); cited from earlier work

Structure (SMILES): CCCCC1C=C(Br)C(=O)/C1=C/CCCCCC(=O)OC (single isomer, unassigned) [2-bromo-4-butyl-5-(6-methoxycarbonylhexylidene)-2-cyclopentenone]
- IC50 (L1210 leukemia cells): 0.2 µg/mL (≈ 0.56 µM)

Structure (SMILES): CCCCC1C=C(Br)C(=O)/C1=C\CCCCCC(=O)OC (single isomer, unassigned) [2-bromo-4-butyl-5-(6-methoxycarbonylhexylidene)-2-cyclopentenone]
- IC50 (L1210 leukemia cells): 0.1 µg/mL (≈ 0.28 µM)

Structure (SMILES): CCCCC1C=C(Cl)C(=O)/C1=C/CCCCCC(=O)OC (single isomer, unassigned) [2-chloro-4-butyl-5-(6-methoxycarbonylhexylidene)-2-cyclopentenone]
- IC50 (L1210 leukemia cells): 0.1 µg/mL (≈ 0.32 µM)

Structure (SMILES): CCCCC1C=C(Cl)C(=O)/C1=C\CCCCCC(=O)OC (single isomer, unassigned) [2-chloro-4-butyl-5-(6-methoxycarbonylhexylidene)-2-cyclopentenone]
- IC50 (L1210 leukemia cells): < 0.3 µg/mL

Structure (SMILES): COC(=O)CCCCCC=C1C(=O)C(Cl)=CC1CCC(C)CCC=C(C)C (stereo not shown) [2-chloro-4-(3,7-dimethyl-6-octenyl)-5-(6-carbomethoxyhexylidene)-2-cyclopentenone]
- Virus yield (HSV type-1 (KOS)): 3.1 × 10^4 pfu/ml
- Virus yield (HSV type-2 (YS-4)): 5.4 × 10^4 pfu/ml

- MIC (B. subtilis ATCC 6633): 6.24 µg/mL (≈ 20.9 µM)
- MIC (P. aeruginosa IFO 3445): 100 µg/mL (≈ 335 µM)
- MIC (P. vulgaris H × 19): 25 µg/mL (≈ 83.7 µM)
- MIC (S. aureus MS 353): 100 µg/mL (≈ 335 µM)
Structure (SMILES): CCCCC1C=C(Cl)C(=O)/C1=C/CCCCCC(=O)O (stereo not shown) [2-chloro-4-butyl-5-(6-carboxyhexylidene)-2-cyclopentenone]
- increase of life span (ILS%) ([1]; 20 mg/kg/day i.p. for 5 days): 40.2%
- increase of life span (ILS%) ([1]; 30 mg/kg/day i.p. for 5 days): 30.7%

Structure (SMILES): CCCCC[C@H](O)/C=C/[C@H]1C(=O)C[C@H](O)[C@@H]1C/C=C\CCCC(=O)O [PGD2]
- IC50 of PGD2 on L1210 cells [2]: 2.4 micrograms/ml
